Results published in ChEMBL document CHEMBL1201862, “PubChem BioAssay data set” (2004).
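Dose response: 5 concentrations. Exposure: 48 h. Format: 96-well plates. Endpoint: linear interpolation; highest concentration if not reached. GI50 is the concentration that inhibits growth by half.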 Activity calls are given as the source filed them. Rule as the data show it: active = GI50 up to about 1.1 µM and inactive = higher.

Experiments:
Test in all cases: growth of human tumour cells (NCI), 48 h
MOLT-4 = system: MOLT-4
SNB-19 = system: SNB-19
HOP-62 = system: HOP-62
U-251 = system: U-251
SW-620 = system: SW-620
HT-29 = system: HT-29
UO-31 = system: UO-31
UACC-257 = system: UACC-257
TK-10 = system: TK-10
T47D = system: T47D
A498 = system: A498
NCI-H23 = system: NCI-H23
NCI-H460 = system: NCI-H460
RXF 393 = system: RXF 393
CCRF-CEM = system: CCRF-CEM
OVCAR-8 = system: OVCAR-8
LOX IMVI = system: LOX IMVI
MDA-MB-435 = system: MDA-MB-435
ACHN = system: ACHN
EKVX = system: EKVX

SMILES | GI50 (MOLT-4) | GI50 (SNB-19) | GI50 (HOP-62) | GI50 (U-251) | GI50 (SW-620) | GI50 (HT-29) | GI50 (UO-31) | GI50 (UACC-257) | GI50 (TK-10) | GI50 (T47D) | GI50 (A498) | GI50 (NCI-H23) | GI50 (NCI-H460) | GI50 (RXF 393) | GI50 (CCRF-CEM) | GI50 (OVCAR-8) | GI50 (LOX IMVI) | GI50 (MDA-MB-435) | GI50 (ACHN) | GI50 (EKVX)
c1ccc([P+](c2ccccc2)(c2ccccc2)c2ccc([P+](c3ccccc3)(c3ccccc3)c3ccccc3)c3ccccc23)cc1 | > 100 µM (inactive) | 65 µM (inactive) | > 100 µM (inactive) | 35.7 µM (inactive) | > 100 µM (inactive) | 79.4 µM (inactive) | > 100 µM (inactive) | 32 µM (inactive) | > 100 µM (inactive) | 54.8 µM (inactive) | > 100 µM (inactive) | 57.4 µM (inactive) | 61.4 µM (inactive) | > 100 µM (inactive) | 64.4 µM (inactive) | 88.1 µM (inactive) | 30.5 µM (inactive) | 84.3 µM (inactive) | > 100 µM (inactive) | –
CCCCCCCCCCCCCCCCNC(=O)/C(=C\c1ccc(Cl)c(Cl)c1)NC(=O)c1ccccc1 | 15.5 µM (inactive) | 46.3 µM (inactive) | 21.4 µM (inactive) | 35.4 µM (inactive) | 31.7 µM (inactive) | 35.5 µM (inactive) | 42 µM (inactive) | > 100 µM (inactive) | 20 µM (inactive) | > 100 µM (inactive) | 19.9 µM (inactive) | 22.8 µM (inactive) | 36.6 µM (inactive) | 15.7 µM (inactive) | – | 59.6 µM (inactive) | 21.9 µM (inactive) | > 100 µM (inactive) | 47.4 µM (inactive) | 44.3 µM (inactive)
CN(C)Cc1cc(/N=N/c2cccc(Cl)c2)ccc1O | 13.2 µM (inactive) | 18.8 µM (inactive) | 10.2 µM (inactive) | 16.9 µM (inactive) | 10.7 µM (inactive) | 17 µM (inactive) | 8.32 µM (inactive) | 14.5 µM (inactive) | 10.6 µM (inactive) | 6.7 µM (inactive) | 10.9 µM (inactive) | 19.9 µM (inactive) | 12.8 µM (inactive) | 1.99 µM (inactive) | 15.8 µM (inactive) | 14.9 µM (inactive) | 4.16 µM (inactive) | 4.22 µM (inactive) | 3.29 µM (inactive) | –
CN(C(=O)CCC(=O)O)c1ccccc1C(=O)O | > 100 µM (inactive) | > 100 µM (inactive) | – | > 100 µM (inactive) | > 100 µM (inactive) | > 100 µM (inactive) | > 100 µM (inactive) | 40.4 µM (inactive) | > 100 µM (inactive) | > 100 µM (inactive) | > 100 µM (inactive) | > 100 µM (inactive) | > 100 µM (inactive) | > 100 µM (inactive) | > 100 µM (inactive) | > 100 µM (inactive) | > 100 µM (inactive) | > 100 µM (inactive) | > 100 µM (inactive) | > 100 µM (inactive)
Cc1c(C)c2c(c(N)c1C#N)C(=O)N(NC(=O)c1ccccc1)C2=O | > 100 µM (inactive) | > 100 µM (inactive) | – | > 100 µM (inactive) | > 100 µM (inactive) | – | 36.1 µM (inactive) | > 100 µM (inactive) | > 100 µM (inactive) | 24.8 µM (inactive) | > 100 µM (inactive) | – | > 100 µM (inactive) | > 100 µM (inactive) | > 100 µM (inactive) | > 100 µM (inactive) | > 100 µM (inactive) | > 100 µM (inactive) | > 100 µM (inactive) | 76.7 µM (inactive)
O=C(Nc1cccc(NC(=O)C(=O)C2CCC3=C(Sc4ccccc4N3)C2=O)n1)C(=O)C1CCC2=C(Sc3ccccc3N2)C1=O (configuration not stated) | 68.9 µM (inactive) | 73.6 µM (inactive) | – | 45.1 µM (inactive) | 40.7 µM (inactive) | 67.9 µM (inactive) | 47.3 µM (inactive) | > 100 µM (inactive) | – | 50.4 µM (inactive) | > 100 µM (inactive) | 68.9 µM (inactive) | 65.9 µM (inactive) | > 100 µM (inactive) | 70.1 µM (inactive) | 43.8 µM (inactive) | 73.1 µM (inactive) | 85.9 µM (inactive) | 76.6 µM (inactive) | 85.1 µM (inactive)
Nn1c(CCCCCCCCc2nnc(COc3ccccc3)n2N)nnc1COc1ccccc1 | > 100 µM (inactive) | > 100 µM (inactive) | > 100 µM (inactive) | > 100 µM (inactive) | > 100 µM (inactive) | > 100 µM (inactive) | > 100 µM (inactive) | > 100 µM (inactive) | > 100 µM (inactive) | > 100 µM (inactive) | > 100 µM (inactive) | > 100 µM (inactive) | > 100 µM (inactive) | > 100 µM (inactive) | – | > 100 µM (inactive) | > 100 µM (inactive) | > 100 µM (inactive) | > 100 µM (inactive) | > 100 µM (inactive)
O=[N+]([O-])C(=C(Nc1ccccc1)Nc1ccccc1)C(Cl)=C(Cl)Cl | – | 17.9 µM (inactive) | 21.9 µM (inactive) | 20.2 µM (inactive) | 14.5 µM (inactive) | 16.4 µM (inactive) | 24.5 µM (inactive) | 14.9 µM (inactive) | 22.6 µM (inactive) | 19.3 µM (inactive) | 9.93 µM (inactive) | 13.6 µM (inactive) | 16.1 µM (inactive) | 15.8 µM (inactive) | 8.04 µM (inactive) | 22.9 µM (inactive) | 8.77 µM (inactive) | 15.3 µM (inactive) | 15.9 µM (inactive) | 15.7 µM (inactive)
C/C(Nc1ccc(Cl)cc1)=C1/CCOC1=O | 1.93 µM (inactive) | > 100 µM (inactive) | – | > 100 µM (inactive) | > 53.2 µM (inactive) | 30.1 µM (inactive) | 2.81 µM (inactive) | 46.5 µM (inactive) | 46.8 µM (inactive) | 4.91 µM (inactive) | > 100 µM (inactive) | > 100 µM (inactive) | > 31.4 µM (inactive) | > 32.1 µM (inactive) | 1.55 µM (inactive) | 7.89 µM (inactive) | 0.277 µM (active) | 0.698 µM (active) | 13.7 µM (inactive) | 34.3 µM (inactive)
CC1=C[C@@H](C)C[C@]2(C)CC[C@H](O2)[C@]23CC[C@](CO)(C[C@H](O2)[C@@H]2O[C@@](C)(CC2=O)[C@@H](O)[C@H]2CC[C@@]4(CCC[C@@H](O4)[C@H](C)C(=O)O[C@H]4C[C@H]([C@]5(O)OCC[C@H](C)[C@@H]5O)O[C@H]4C=C1)O2)O3 | – | 0.0197 µM (active) | 0.00345 µM (active) | 0.022 µM (active) | 0.214 µM (active) | 0.0166 µM (active) | 0.0435 µM (active) | 0.142 µM (active) | 0.0179 µM (active) | 0.427 µM (active) | 0.00229 µM (active) | 0.0935 µM (active) | 0.0333 µM (active) | 0.0118 µM (active) | 0.00471 µM (active) | 0.0562 µM (active) | 0.001 µM (active) | 0.0249 µM (active) | 0.0249 µM (active) | 0.013 µM (active)
